Data set [1] deals with Plasmodium falciparum. Put plainly: NOVARTIS: Inhibition of Plasmodium falciparum 3D7 (drug-susceptible) proliferation in erythrocyte-based infection assay. The class given is functional, organism-based. The conditions noted are these: Plasmodium falciparum, 3D7.
Data set [2] concerns Plasmodium falciparum. The data set is described as follows: NOVARTIS: Inhibition of Plasmodium falciparum W2 (drug-resistant) proliferation in erythrocyte-based infection assay. The conditions noted are these: Plasmodium falciparum, W2; read-out: EC50. The data set is classed as functional, organism-based.
Data set [3] can be described thus: NOVARTIS: Cytotoxicity against human hepatocellular carcinoma cell line (Huh7). The data set is classed as toxicity, cell-based, Huh-7. The conditions noted are these: Huh7 cells (hepatocellular carcinoma cell line).

Data on 39 compounds can be found in ChEMBL document CHEMBL1156829 (Proc Natl Acad Sci U S A, 2008).

Bounds are passed on as bounds.

The term EC50 denotes the concentration giving half of the maximal effect. In general, CC50 refers to the concentration that lowers cell viability or growth by half. With `CCOc1ccc2[nH]c(=O)c(CN(CCc3ccccc3)C(=O)c3cnccn3)cc2c1`, the results for the concentration for a half-maximal effect (EC50) with Plasmodium falciparum [1] and in the data set with Plasmodium falciparum [2] were above 428 nM and above 397 nM, respectively. This compound had a CC50 in data set [3] above 10000 nM.
`O=C(Nc1ccc(C2=NCCN2)cc1)c1cccc2c(C(=O)Nc3ccc(C4=NCCN4)cc3)cccc12`: the EC50 turned out to be 83.9 nM with Plasmodium falciparum [1] and 397 nM in the data set on Plasmodium falciparum [2]. This compound registered a CC50 in data set [3] above 10000 nM.
On to `Oc1ccc(-c2cncc(NCc3ccc(Cl)cc3)c2)cc1`, for which the EC50 stood at 439 nM in the data set on Plasmodium falciparum [1] and 405 nM in the data set with Plasmodium falciparum [2]. In data set [3], this compound yielded a cytotoxic concentration (CC50) above 10000 nM.
As for `FC(F)(F)c1cccc(-c2nc3c(s2)CN(C2CCCC2)CC3)c1`, the EC50 came out at 5370 nM with Plasmodium falciparum [1] and 2950 nM in the data set on Plasmodium falciparum [2]. The same compound had a CC50 in data set [3] of 73000 nM.
In the same order, the values of `Cc1ccc(N=C2S/C(=C\c3ccccc3)C(=O)N2c2ccc(C)cc2)cc1` are above 1740 nM, 404 nM and above 10000 nM.
The like results for `Oc1ccc(-c2ccnc3cc(Cl)ccc23)cc1CNCCCn1ccnc1` were, in that order, 167 nM, 403 nM and above 10000 nM.
With `CCc1ccc2[nH]c(=O)c(CN(CCN(CC)CC)C(=S)NCCCN(C)C)cc2c1`, the values for the EC50 in the data set on Plasmodium falciparum [1] and in the data set on Plasmodium falciparum [2] were 2270 nM and 1530 nM, respectively. In data set [3], this compound yielded a CC50 of 38200 nM.
Take `CO[C@H]1O[C@@H]2COC(c3ccccc3)O[C@H]2[C@@H](O)[C@@H]1OCc1ccccc1` (some centres not stated): the EC50 in the data set on Plasmodium falciparum [1] came to 376 nM; in the data set with Plasmodium falciparum [2] it was 555 nM. The same compound returned a CC50 in data set [3] above 13800 nM.
The like results for `O=C(N/C(=C/C=C\c1ccccc1)C(=O)N1CCOCC1)c1ccc(Br)cc1` were, in that order, above 1300 nM, 401 nM and above 10000 nM.
The like results for `CCc1ccc(NC(=O)c2sc3nc(N)c(C#N)c(-c4ccc(OC)c(OC)c4)c3c2N)cc1` were, in that order, 5810 nM, 3990 nM and above 100000 nM.
The like results for `CCCCCc1ccc(OCCCC[n+]2cccc(C)c2C)c(CCCCC)c1` were, in that order, 215 nM, 120 nM and 3000 nM.
Turning to `CCOc1ccc2nc(C)cc(Nc3ccc(N(C)C)cc3)c2c1`, the EC50 with Plasmodium falciparum [1] is 344 nM; in the data set with Plasmodium falciparum [2], 662 nM. The compound further yielded a CC50 in data set [3] of 16600 nM.
The like results for `CC(=O)N1CCN(c2ccc(NC(=S)NC(=O)c3ccc(C)cc3)cc2)CC1` were, in that order, above 12500 nM, 3790 nM and above 95700 nM.
As for `O=C(NCCc1ccccc1)c1cnc(NCCC2=CCCCC2)nc1NCC1CCCCC1`, the EC50 came out at 436 nM in the data set on Plasmodium falciparum [1] and 395 nM with Plasmodium falciparum [2]. In data set [3], this compound had a CC50 above 10000 nM.
In the same order, the values of `Clc1ccc(-n2cc(-c3ccccc3)c3c(N4CCC(Cc5ccccc5)CC4)ncnc32)cc1` are above 10000 nM, above 3990 nM and above 100000 nM.
Turning to `CC(C)(C)c1ccc2[nH]c3c(c2c1)CCCC3=NO`, the EC50 in the data set on Plasmodium falciparum [1] is 5020 nM; in the data set with Plasmodium falciparum [2] it was 831 nM. In data set [3], this compound showed a CC50 of 20900 nM.
The like results for `CC(C)CCn1nc(C(=O)N2CCOCC2)c2c1CCN(C(=O)c1ccc(N3CCOCC3)cc1)C2` were, in that order, above 11800 nM, 3960 nM and above 100000 nM.
In the same order, the values of `Cc1ccccc1[S+]([O-])Cc1ccc(C(=O)N2CCN(c3ccccn3)CC2)o1` (configuration not stated) are above 7130 nM, 1660 nM and above 42000 nM.
In the same order, the values of `COC(=O)c1ccc2c(c1)C(=O)c1ccccc1C2C1c2ccccc2C(=O)c2cc(C(=O)OC)ccc21` (configuration not stated) are 856 nM, 397 nM and above 10000 nM.
As to `CCC(=O)N1CCc2cc(S(=O)(=O)N3CCN(c4cccc(C(F)(F)F)c4)CC3)ccc21`, the results for the 50% effective concentration (EC50) with Plasmodium falciparum [1] and in the data set with Plasmodium falciparum [2] were 574 nM and 398 nM, respectively. The compound also had a CC50 in data set [3] above 10000 nM.
Consider `O=C1C2C(C(=O)N1c1ccc(Br)cc1)C1C=CC2C12CC2` (configuration not stated), for which the results for the EC50 in the data set with Plasmodium falciparum [1] and with Plasmodium falciparum [2] were above 12500 nM and 3980 nM, respectively. Also, in data set [3], the CC50 was above 100000 nM.
The like results for `CC(C)(C)c1ccc(-c2c[n+](-c3ccccc3)c3n2CCCS3)cc1` were, in that order, 221 nM, 313 nM and 7870 nM.
The like results for `Cc1ccc(C(=O)Nc2ccc(-c3nc4cc5ccccc5cc4[nH]3)cc2)cc1[N+](=O)[O-]` were, in that order, 4300 nM, 3980 nM and above 100000 nM.
Turning to `Cc1cc(N2CCN(C/C=C/c3ccccc3)CC2)n2c(nc3ccccc32)c1C#N`, the EC50 in the data set on Plasmodium falciparum [1] worked out at 415 nM; in the data set with Plasmodium falciparum [2], 395 nM. Further, the CC50 in data set [3] is above 10000 nM.
On to `CC(=O)N(C1=C(N2CCOCC2)C(=O)c2ccccc2C1=O)c1cccc(Cl)c1`, for which the EC50 was 214 nM in the data set with Plasmodium falciparum [1] and 187 nM with Plasmodium falciparum [2]. This compound came in with a CC50 in data set [3] of 4720 nM.
For `COc1ccc(-c2nc(-c3ccc4c(c3)-c3cc(-c5[nH]c(-c6ccc(OC)cc6)nc5-c5ccccc5)ccc3C4=O)c(-c3ccccc3)[nH]2)cc1`, the EC50 in the data set on Plasmodium falciparum [1] was 7300 nM; with Plasmodium falciparum [2] it was 3750 nM. Further, the CC50 in data set [3] came out at 94500 nM.
In the case of `Cc1cc(C)n(-c2ncc(-c3ccc([N+](=O)[O-])cc3)cn2)n1`, the results for the EC50 with Plasmodium falciparum [1] and with Plasmodium falciparum [2] were above 12500 nM and 3960 nM, respectively. In addition, the CC50 in data set [3] is above 100000 nM.
The like results for `CSc1cccc(NC(=O)C2C3C=CC4(O3)C2C(=O)N(CCN2CCCCC2)C4C(=O)NC2CCCC(C)C2C)c1` (configuration not stated) were, in that order, above 11100 nM, 1900 nM and 48100 nM.
Take `COc1cccc(N2CCN(CCNCCc3ccccc3)[C@@H](Cc3ccc(O)cc3)C2)c1`: the EC50 is 564 nM in the data set on Plasmodium falciparum [1] and 397 nM in the data set on Plasmodium falciparum [2]. This compound also yielded a CC50 in data set [3] above 10000 nM.
In the same order, the values of `CC1CC2(C)Oc3ccccc3CC2C(C)C1CNCCCN(C)C` (configuration not stated) are 241 nM, 192 nM and 4790 nM.
In the same order, the values of `CCOc1ccc(/C=C(/C#N)c2nc3ccccc3[nH]2)cc1OC` are 1500 nM, 405 nM and above 10000 nM.
In the same order, the values of `Cc1nc2c(=O)n(C)c(=O)nc-2n(C)n1` are 593 nM, 398 nM and above 10000 nM.
On to `O=S(=O)(c1ccc(Br)s1)N1CCN(c2ccccc2)CC1`, for which the values for the EC50 with Plasmodium falciparum [1] and in the data set with Plasmodium falciparum [2] were 411 nM and 400 nM, respectively. In data set [3], the CC50 is above 10000 nM.
In the same order, the values of `CCC(Nc1ccc(OC)cc1)=C1C(=O)CC(C)(C)CC1=O` are above 4140 nM, 3950 nM and above 100000 nM.
The like results for `OCCCNc1cc(-c2ccccn2)nc(-c2ccccn2)n1` were, in that order, above 908 nM, 401 nM and above 10000 nM.
In the case of `CCCCCCN(C(=O)COc1ccccc1)C(CC)c1nc2ccccc2c(=O)n1-c1cccc(Cl)c1` (configuration not stated), the EC50 in the data set with Plasmodium falciparum [1] was determined as 2740 nM; with Plasmodium falciparum [2], 4010 nM. For the same compound, the CC50 in data set [3] is above 100000 nM.
For `CCc1ccc2[nH]c(=O)c(CN(CCO)C(=S)Nc3ccccc3CC)cc2c1`, the EC50 is 2620 nM with Plasmodium falciparum [1] and 1910 nM in the data set on Plasmodium falciparum [2]. In addition, in data set [3], the CC50 worked out at 48000 nM.
In the same order, the values of `CCN(CC)CCCNC(=S)N(CCc1cccc(C)c1)Cc1cc2cc(OC)c(OC)cc2[nH]c1=O` are 2430 nM, 747 nM and 18600 nM.
In the same order, the values of `COC(=O)c1sc2nc(CN(C)CC(C)C)ccc2c1NC(=O)c1ccc(C)s1` are above 12500 nM, 4010 nM and above 100000 nM.
